Experiment [1] deals with HIV viruses (T-lymphocytes). As to the kind of experiment: protection of T-lymphocytes against the cytopathic effect of HIV viruses. The class given is cell-based.
Experiment [2] concerns HIV viruses. The experiment can be described thus: CPE cell line assay against p24 antigen. The class given is cell-based. As to conditions: Human immunodeficiency virus 1, in vitro. An excerpt: (§1) This is usually substantially more difficult to protect so, for example, in the case of the use of 3-azide-3'-deoxythymidine (AZT), a 100-fold higher dosage is needed than in the use of the compound of the present invention.
(§2) The above assay is described in the Journal of the National Cancer Institute, Vol. 81, No. 8, Apr. 19, 1989.

Experiment [3] deals with HIV viruses (CEM-IW cell line). The experiment can be described thus: in vitro anti-HIV assay in CEM-IW cell line. The conditions noted are these: Human immunodeficiency virus 1. The class given is cell-based.
Text: as §1, §2

Experiment [4] concerns the target reverse transcriptase (Human immunodeficiency virus type 1 group M subtype B, UniProt P04585). As to the kind of experiment: inhibition of reverse transcriptase. The class given is biochemical. As to conditions: in vitro.
Text: as §1

Experiment [5] relates to HIV viruses (cell line C8166). As to the kind of experiment: in vitro anti-HIV protection assay in cell line C8166. The class given is cell-based.
Text: as §1, §2

pEC50, pIC50: −log10 of the molar value.

Turning to `O=S1(c2ccccc2)=NC(=S)Nc2ccccc21` (stereo not drawn) [Example 1, 3,4-Dihydro-1-phenyl-3-thio-1,2,4-benzothiadiazine 1-oxide], the “protection of T-lymphocytes against the cytopathic effect of HIV viruses” value in experiment [1] is reported as “complete protection”. The values for the pEC50 in experiment [2] and in experiment [3] were around 5.78 and around 5.70, respectively. Moreover, the pIC50 in experiment [4] was 5.70. For the same compound, the “values found for the cell line C8166 compared with the other cell line values” in experiment [5] (cell line C8166, usually substantially more difficult to protect) is “comparable values”.
Turning to `Cc1cn([C@H]2C[C@H](N=[N+]=[N-])[C@@H](CO)O2)c(=O)[nH]c1=O` [AZT, 3-azide-3'-deoxythymidine, reference compound], in experiment [5] (cell line C8166, higher dosage needed), the “dosage needed relative to the compound of the present invention” value turned out to be 100 fold.

Values taken from patent US5321024A, “Antiviral pharmaceutical composition for treating lymphocytes” (Godecke Aktiengesellschaft, priority 1991, dated 1994).
